Assays:
[1] = molecular target: T1, KRas^G12C (Homo sapiens, UniProt P01116, G12C); test: KRas binding assay (TR-FRET tracer displacement), KRas G12C; conditions: for inhibition at 0.01 µM: single point, 10 nM compound, TR-FRET
T1 construct: Biotinylated KRas (corresponding to amino acids 1-169, produced at Accelegan Inc.); biotin (biotinylated); purchased Accelegan Inc

[2] = system: KRas-mediated phosphorylation of ERK in PSN1 cells; test: Inhibition of KRas-mediated phosphorylation of ERK (Cisbio HTRF pERK), PSN1 cells; assay type: cell-based; conditions: Homo sapiens
How it was run: (§1)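 Day 1 seeding: 6,000 cells per well, RPMI/10% FBS, left overnight at 37° C. with 5% CO2. Plates then stood covered for 4 h at room temperature prior to HTRF detection of pERK.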

[3] = molecular target: T2, KRas^G12D (Homo sapiens, UniProt P01116, G12D); test: KRas binding assay (TR-FRET tracer displacement), KRas G12D
T2 construct: Biotinylated KRas (corresponding to amino acids 1-169, produced at Accelegan Inc.); biotin (biotinylated); purchased Accelegan Inc
T2 sequence (P01116 1-169 isoform P01116-2 G12D): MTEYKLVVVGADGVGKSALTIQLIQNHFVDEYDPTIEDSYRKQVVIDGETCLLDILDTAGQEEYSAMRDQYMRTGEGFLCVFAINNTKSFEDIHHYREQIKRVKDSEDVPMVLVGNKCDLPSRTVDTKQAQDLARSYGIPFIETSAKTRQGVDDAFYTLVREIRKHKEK

[4] = molecular target: T3, KRas^G12V (Homo sapiens, UniProt P01116, G12V); test: KRas binding assay (TR-FRET tracer displacement), KRas G12V
T3 construct: Biotinylated KRas (corresponding to amino acids 1-169, produced at Accelegan Inc.); biotin (biotinylated); purchased Accelegan Inc
T3 sequence (P01116 1-169 isoform P01116-2 G12V): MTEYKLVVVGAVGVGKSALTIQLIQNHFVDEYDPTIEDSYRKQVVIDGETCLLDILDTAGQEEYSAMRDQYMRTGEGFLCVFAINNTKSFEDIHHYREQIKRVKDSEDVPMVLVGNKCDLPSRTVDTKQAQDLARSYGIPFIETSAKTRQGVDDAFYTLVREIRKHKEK

[5] = system: KRas-mediated phosphorylation of ERK in MKN1 cells; test: Inhibition of KRas-mediated phosphorylation of ERK (Cisbio HTRF pERK), MKN1 cells; assay type: cell-based; conditions: Homo sapiens, MKN-1
How it was run: as §1

[6] = system: KRas-mediated phosphorylation of ERK in H358 cells; test: Inhibition of KRas-mediated phosphorylation of ERK (Cisbio HTRF pERK), H358 cells; assay type: cell-based; conditions: Homo sapiens; for inhibition at 0.1 µM: NCI-H358, 3 h, single point, 100 nM compound, 3 hrs; for IC50: NCI-H358, HTRF pERK
How it was run: (§2)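 A cell-based HTRF pERK assay: ten-point, threefold titrations beginning at 10 uM were applied for 3 hrs, with 0.2 uM Trametinib wells as the minimum control. Cells were lysed cold, and lysate was incubated with the antibody pair for 2 hrs before reading.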

[7] = molecular target: T4, KRas^G13D (Homo sapiens, UniProt P01116, G13D); test: KRas binding assay (TR-FRET tracer displacement), KRas G13D; conditions: for inhibition at 0.01 µM: single point, 10 nM compound, TR-FRET
T4 construct: Biotinylated KRas (corresponding to amino acids 1-169, produced at Accelegan Inc.); biotin (biotinylated); purchased Accelegan Inc
T4 sequence (P01116 1-169 isoform P01116-2 G13D): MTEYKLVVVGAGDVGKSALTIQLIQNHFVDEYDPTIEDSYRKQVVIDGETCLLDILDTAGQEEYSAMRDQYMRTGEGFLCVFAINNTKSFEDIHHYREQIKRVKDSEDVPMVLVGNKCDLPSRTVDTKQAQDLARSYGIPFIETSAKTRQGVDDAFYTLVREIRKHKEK

[8] = system: KRas-mediated phosphorylation of ERK in HCT116 cells; test: Inhibition of KRas-mediated phosphorylation of ERK (Cisbio HTRF pERK), HCT116 cells; assay type: cell-based; conditions: Homo sapiens; for inhibition at 0.1 µM: HCT-116, 3 h, single point, 100 nM compound, 3 hrs; for IC50: HCT-116, HTRF pERK
How it was run: (§3)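 Cells were seeded at 6,000 per well and treated for 3 hrs with compound in a 10-dose, 3-fold series from 10 uM (0.8% final DMSO), with 0.2 uM Trametinib as Min control. Lysates made at 4° C over 40 mins were incubated 2 hrs at room temperature with d2- and Cryptate-labelled antibodies, then read by HTRF.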

[9] = molecular target: T5, KRas^WT (Homo sapiens, UniProt P01116); test: KRas binding assay (TR-FRET tracer displacement), KRas WT; conditions: for inhibition at 0.01 µM: single point, 10 nM compound, TR-FRET
T5 construct: Biotinylated KRas (corresponding to amino acids 1-169, produced at Accelegan Inc.); biotin (biotinylated); purchased Accelegan Inc
T5 sequence (P01116 1-169 isoform P01116-2): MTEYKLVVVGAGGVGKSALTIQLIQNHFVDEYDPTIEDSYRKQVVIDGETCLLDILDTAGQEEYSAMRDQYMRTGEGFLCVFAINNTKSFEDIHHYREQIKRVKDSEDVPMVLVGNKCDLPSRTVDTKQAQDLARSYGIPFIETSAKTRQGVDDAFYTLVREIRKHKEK

[10] = molecular target: T6, KRas^G12A (Homo sapiens, UniProt P01116, G12A); test: KRas binding assay (TR-FRET tracer displacement), KRas G12A; conditions: for inhibition at 0.01 µM: single point, 10 nM compound, TR-FRET
T6 construct: Biotinylated KRas (corresponding to amino acids 1-169, produced at Accelegan Inc.); biotin (biotinylated); purchased Accelegan Inc
T6 sequence (P01116 1-169 isoform P01116-2 G12A): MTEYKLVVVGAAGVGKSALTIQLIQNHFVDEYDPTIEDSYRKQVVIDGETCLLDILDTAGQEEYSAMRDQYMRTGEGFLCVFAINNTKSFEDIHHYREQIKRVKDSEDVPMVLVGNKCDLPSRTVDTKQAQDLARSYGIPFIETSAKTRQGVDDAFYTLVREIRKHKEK

[11] = system: KRas-mediated phosphorylation of ERK in AsPC-1 cells; test: Inhibition of KRas-mediated phosphorylation of ERK (Cisbio HTRF pERK), AsPC-1 cells; assay type: cell-based; conditions: Homo sapiens; for IC50: ASPC1, AsPC-1 cells, HTRF pERK
How it was run: as §2

[12] = molecular target: T7, KRas^G12R (Homo sapiens, UniProt P01116, G12R); test: KRas binding assay (TR-FRET tracer displacement), KRas G12R
T7 construct: Biotinylated KRas (corresponding to amino acids 1-169, produced at Accelegan Inc.); biotin (biotinylated); purchased Accelegan Inc
T7 sequence (P01116 1-169 isoform P01116-2 G12R): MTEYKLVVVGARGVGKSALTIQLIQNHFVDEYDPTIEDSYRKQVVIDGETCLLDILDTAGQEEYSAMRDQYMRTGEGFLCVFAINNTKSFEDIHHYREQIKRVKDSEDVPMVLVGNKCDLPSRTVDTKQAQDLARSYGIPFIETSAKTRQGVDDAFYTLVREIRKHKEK

[13] = molecular target: T8, KRas^Q61H (Homo sapiens, UniProt P01116, Q61H); test: KRas binding assay (TR-FRET tracer displacement), KRas Q61H; conditions: for inhibition at 0.01 µM: single point, 10 nM compound, TR-FRET
T8 construct: Biotinylated KRas (corresponding to amino acids 1-169, produced at Accelegan Inc.); biotin (biotinylated); purchased Accelegan Inc
T8 sequence (P01116 1-169 isoform P01116-2 Q61H): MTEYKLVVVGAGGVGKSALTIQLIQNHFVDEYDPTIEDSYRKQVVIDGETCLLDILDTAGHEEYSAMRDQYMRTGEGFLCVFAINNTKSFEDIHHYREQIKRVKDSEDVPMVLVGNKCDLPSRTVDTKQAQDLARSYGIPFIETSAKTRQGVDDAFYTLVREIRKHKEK

[14] = system: KRas-mediated phosphorylation of ERK in A549 cells; test: Inhibition of KRas-mediated phosphorylation of ERK (Cisbio HTRF pERK), A549 cells; assay type: cell-based; conditions: Homo sapiens; for inhibition at 0.1 µM: A549, 3 h, single point, 100 nM compound, 3 hrs; for IC50: HTRF pERK
How it was run: as §3

[15] = system: KRas-mediated phosphorylation of ERK in H727 cells; test: Inhibition of KRas-mediated phosphorylation of ERK (Cisbio HTRF pERK), H727 cells; assay type: cell-based; conditions: Homo sapiens; for IC50: NCI-H727, H727 cells, HTRF pERK
How it was run: as §2

[16] = molecular target: T9, KRas^G12S (Homo sapiens, UniProt P01116, G12S); test: KRas binding assay (TR-FRET tracer displacement), KRas G12S; conditions: for inhibition at 0.01 µM: single point, 10 nM compound, TR-FRET
T9 construct: Biotinylated KRas (corresponding to amino acids 1-169, produced at Accelegan Inc.); biotin (biotinylated); purchased Accelegan Inc
T9 sequence (P01116 1-169 isoform P01116-2 G12S): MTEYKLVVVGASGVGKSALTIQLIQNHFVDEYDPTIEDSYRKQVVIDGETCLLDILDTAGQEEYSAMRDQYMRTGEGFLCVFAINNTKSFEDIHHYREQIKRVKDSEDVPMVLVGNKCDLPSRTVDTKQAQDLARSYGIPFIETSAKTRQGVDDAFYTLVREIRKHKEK

[17] = system: KRas-mediated phosphorylation of ERK in H460 cells; test: Inhibition of KRas-mediated phosphorylation of ERK (Cisbio HTRF pERK), H460 cells; assay type: cell-based; conditions: Homo sapiens; for inhibition at 0.1 µM: NCI-H460, 3 h, single point, 100 nM compound, 3 hrs; for IC50: NCI-H460, HTRF pERK
How it was run: as §2

T1 sequence (P01116 1-169 isoform P01116-2 G12C): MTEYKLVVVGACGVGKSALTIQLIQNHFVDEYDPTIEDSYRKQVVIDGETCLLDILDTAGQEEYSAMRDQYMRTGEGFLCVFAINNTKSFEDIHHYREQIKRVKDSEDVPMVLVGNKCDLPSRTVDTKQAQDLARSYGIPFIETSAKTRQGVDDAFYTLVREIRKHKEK

Structure (SMILES) | inhibition at 0.01 µM [1] | IC50 [2] | IC50 [3] | IC50 [4] | IC50 [5] | inhibition at 0.01 µM [7] | inhibition at 0.01 µM [9] | inhibition at 0.01 µM [10] | IC50 [11] | IC50 [12] | inhibition at 0.01 µM [13] | IC50 [15] | inhibition at 0.01 µM [16] | IC50 [6] | IC50 [8] | IC50 [17] | inhibition at 0.1 µM [6] | inhibition at 0.1 µM [8] | inhibition at 0.1 µM [14] | inhibition at 0.1 µM [17] | also measured
O=S1(=O)CCC2(CCCN(c3nc(OC[C@@]45CCCN4C[C@H](F)C5)nc4c(F)c(-c5cc(O)cc6cccc(Cl)c56)ncc34)C2)N1 (stereo partly drawn) [Example 604, 7-(7-(8-chloro-3-hydroxynaphthalen-1-yl)-8-fluoro-2-(((2R,7aS)-2-fluorohexahydro-1H-pyrrolizin-7a-yl)methoxy)pyrido[4,3-d]pyrimidin-4-yl)-2-thia-1,7-diazaspiro[4.5]decane 2,2-dioxide] | – | 425 nM | < 2 nM | < 2 nM | 2 nM | – | – | – | 81 nM | < 2 nM | – | 71 nM | – | – | – | – | 94% | 64% | 27% | 69% | IC50 ([1]; TR-FRET tracer displacement, KRas G12C): < 2 nM; IC50 ([7]; TR-FRET tracer displacement, KRas G13D): < 2 nM; IC50 ([9]; TR-FRET tracer displacement, KRas WT): < 2 nM; IC50 ([10]; TR-FRET tracer displacement, KRas G12A): 2 nM; inhibition at 0.1 µM ([11]; ASPC1, 3 h, single point, 100 nM compound, 3 hrs, AsPC-1 cells): 53%; IC50 ([13]; TR-FRET tracer displacement, KRas Q61H): < 2 nM; inhibition at 0.1 µM ([15]; NCI-H727, 3 h, single point, 100 nM compound, 3 hrs, H727 cells): 47%; IC50 ([16]; TR-FRET tracer displacement, KRas G12S): < 2 nM
CCc1c(F)ccc2cc(O)cc(-c3ncc4c(N5CCCn6nc(C(=O)N(C)C)c(C)c6C5)nc(OC[C@@]56CCCN5C[C@H](F)C6)nc4c3F)c12 [Example 670, 5-(7-(8-ethyl-7-fluoro-3-hydroxynaphthalen-1-yl)-8-fluoro-2-(((2R,7aS)-2-fluorotetrahydro-1H-pyrrolizin-7a(5H)-yl)methoxy)pyrido[4,3-d]pyrimidin-4-yl)-N,N,3-trimethyl-5,6,7,8-tetrahydro-4H-pyrazolo[1,5-a][1,4]diazepine-2-carboxamide] | 99% | 4680 nM | < 2 nM | < 2 nM | 2 nM | 98% | 98% | 98% | 2 nM | < 2 nM | 97% | 5 nM | 100% | 1 nM | 53 nM | 17 nM | – | – | – | – | IC50 [14]: 9 nM
CCc1c(F)ccc2cc(O)cc(-c3ncc4c(N5CCC[C@@]6(CCO6)C5)nc(OCC5(CN(C)C)CC5)nc4c3F)c12 [Example 700, (R)-4-(2-((1-((dimethylamino)methyl)cyclopropyl)methoxy)-8-fluoro-4-(1-oxa-6-azaspiro[3.5]nonan-6-yl)pyrido[4,3-d]pyrimidin-7-yl)-5-ethyl-6-fluoronaphthalen-2-ol] | 97% | 1320 nM | – | – | 4 nM | 96% | 91% | 83% | 412 nM | – | 96% | 948 nM | 93% | 209 nM | 784 nM | 348 nM | 103% | 86% | 83% | 96% | IC50 [14]: 468 nM
CCc1c(F)ccc2cc(O)cc(-c3ncc4c(N5CCC[C@]6(C5)C[C@H](O)C6)nc(OC[C@@]56CCCN5[C@H](COC(=O)N(C)C)CC6)nc4c3F)c12 [Example 712, ((3S,7aS)-7a-(((7-(8-ethyl-7-fluoro-3-hydroxynaphthalen-1-yl)-8-fluoro-4-((2R,4r)-2-hydroxy-6-azaspiro[3.5]nonan-6-yl)pyrido[4,3-d]pyrimidin-2-yl)oxy)methyl)hexahydro-1H-pyrrolizin-3-yl)methyl dimethylcarbamate] | 94% | 2710 nM | 2 nM | < 2 nM | 12 nM | 90% | 86% | 88% | 15 nM | < 2 nM | 90% | 30 nM | 90% | – | – | 22 nM | 95% | – | 52% | – | –

Continued by falling IC50 [2], values first:

inhibition at 0.01 µM [1] | IC50 [2] | IC50 [3] | IC50 [4] | IC50 [5] | inhibition at 0.01 µM [7] | inhibition at 0.01 µM [9] | inhibition at 0.01 µM [10] | IC50 [11] | IC50 [12] | inhibition at 0.01 µM [13] | IC50 [15] | inhibition at 0.01 µM [16] | IC50 [6] | IC50 [8] | IC50 [17] | Structure (SMILES) | inhibition at 0.1 µM [6] | inhibition at 0.1 µM [8] | inhibition at 0.1 µM [14] | inhibition at 0.1 µM [17] | also measured
89% | 9490 nM | 15 nM | < 2 nM | 5 nM | 82% | 73% | 70% | 105 nM | < 2 nM | 82% | 20 nM | 82% | – | – | – | CCc1c(F)ccc2cc(O)cc(-c3ncc4c(N5CC6CCC(C5)C6C#N)nc(OC[C@@]56CCCN5C[C@H](F)C6)nc4c3F)c12 (stereo partly drawn) [Example 559, 3-(7-(8-ethyl-7-fluoro-3-hydroxynaphthalen-1-yl)-8-fluoro-2-(((2R,7aS)-2-fluorohexahydro-1H-pyrrolizin-7a-yl)methoxy)pyrido[4,3-d]pyrimidin-4-yl)-3-azabicyclo[3.2.1]octane-8-carbonitrile] | 98% | 55% | 75% | 89% | –
81% | 3580 nM | 3 nM | 2 nM | 22 nM | 67% | 66% | 74% | 73 nM | 4 nM | 69% | 59 nM | 76% | – | – | 102 nM | CCc1c(F)ccc2cc(O)cc(-c3ncc4c(N5CCC[C@]6(C5)C[C@@H](O)C6)nc(OC[C@@]56CCCN5[C@H](COC(=O)N(C)C)CC6)nc4c3F)c12 [Example 713, ((3S,7aS)-7a-(((7-(8-ethyl-7-fluoro-3-hydroxynaphthalen-1-yl)-8-fluoro-4-((2S,4s)-2-hydroxy-6-azaspiro[3.5]nonan-6-yl)pyrido[4,3-d]pyrimidin-2-yl)oxy)methyl)hexahydro-1H-pyrrolizin-3-yl)methyl dimethylcarbamate] | 60% | – | 25% | – | –
99% | 625 nM | < 2 nM | < 2 nM | 4 nM | 99% | 98% | 88% | 6 nM | < 2 nM | 100% | 21 nM | 98% | 2 nM | 13 nM | 5 nM | CCc1c(F)ccc2cc(O)cc(-c3ncc4c(N5CCCC6(CCS(=O)(=O)N6)C5)nc(OC[C@@]56CCCN5C[C@H](F)C6)nc4c3F)c12 (stereo partly drawn) [Example 643, 7-(7-(8-ethyl-7-fluoro-3-hydroxynaphthalen-1-yl)-8-fluoro-2-(((2R,7aS)-2-fluorohexahydro-1H-pyrrolizin-7a-yl)methoxy)pyrido[4,3-d]pyrimidin-4-yl)-2-thia-1,7-diazaspiro[4.5]decane 2,2-dioxide] | – | 87% | – | 100% | IC50 [14]: 16 nM

Reference: US20260015350A1, “AZAQUINAZOLINE PAN-KRAS INHIBITORS” (Mirati Therapeutics, Inc., priority 2022, published 2026)
